Two compounds from US6692753B2, “Potentiation of the immune response” (priority 1997, dated 2004) can be followed below.

“Also recorded” adds a separate entry of the source.

The subject of assay [1] is CD4/CD8+ T cells. In words: Cell death of purified resting T-cells, 7AAD flow cytometry. The assay is classed as cell-based, human. Conditions: overnight incubation, 10^−4M or 10^−6M. As for the experimental part: CD19+B cells and CD4/CD8+ T cells were isolated (>90% and >97% purity, respectively). The cells were then incubated overnight in the presence or absence of VBP (10^−4M or 10^−6M). The amount of death induced by VBP treatment was determined by 7AAD flow cytometry analysis. The data represents the mean percent of death from duplicate samples.
The amount of cell death was determined by 7AAD flow cytometry analysis. Data represent % of cell death from duplicate samples.
In general terms: In flow cytometry, cells or beads pass a laser one at a time.

Assay [2] deals with CD26+ and CD26− PBMC populations. In words: Cell death of sorted CD26+ and CD26− PBMC populations, 7AAD flow cytometry. The format is cell-based, human. Conditions: overnight, various (moderate) concentrations. The method, then: PBMC were stained with the anti-CD26 monoclonal antibody, 4 EL, and then sorted into CD26^+ and CD26^− populations using a facstar plus dual lasar flow cytometry. The cells expressing the highest level )top 5%) of CD26 and the cells expressing the lowest level (bottom 10%) of CD26 were isolated as the CD26^+ and CD26^− populations respectively. […] The CD26^+ and CD26^− populations were cultured overnight in the presence or absence of various concentrations of VBP. The amount of death induced by VBP treatment was determined by 7AAD flow cytometry analysis. Data represent mean percent of death from duplicate samples +/−SD.
The amount of cell death was determined by 7AAD flow cytometry analysis. Data represent mean % of death from duplicate samples.

Assay [3] deals with cytoplasmic T-cell enzyme (post-prolyl dipeptidase) in Jurkat T-cell cytoplasmic extract. In words: Enzymatic activity of Jurkat T-cell cytoplasmic extract, fluorescent cleavage of Ala-ProAFC. The assay is classed as biochemical, human. The following applies: varying concentrations.
Procedure: A suitable enzyme-containing cell extract can be prepared as follows. First, Jurkat cells (10^6-10^11 cells) are grown and a cell pellet is obtained by centrifugation. The cell pellet is stored in frozen condition.
For use in the assay, the frozen pellet is thawed by the addition of ice cold lysis buffer, in the amount of approximately 1 ml per 10^8 cells. The liquified material is homogenized with ten strokes of a Dounce homogenizer, and then clarified by centrifugation at 1500 g. The supernatant is removed (and saved), and the 1500 g. pellet is resuspended in lysis buffer and homogenized with ten strokes of a Dounce homogenizer. Clarification is again carried out by centrifugation at 1500 g, 4° C.
The 1500 g supernatants are then combined, and EDTA is added to 5mM. The resultant liquid is centrifuged at 75,000 g at 4° C. for twenty minutes, and the supernatant is then removed and centrifuged at 175,000 g. at 4° C., for 60 minutes. […]
In the assay we carried out, we employed a fluorescence spectrometer for excitation at 400 nm and emission at 505 nm. […]
In the test samples, multiple samples are run containing varying concentrations, down to 10^−8 M, of the test compound. […] Enzymatic activity is measured as the accumulation of fluoresence intensity (i.e., substrate cleavage product) over time (1 min.).
Assay [4] concerns PBMC from HIV-infected individuals. The experiment in a line: Proliferation of PBMC from HIV-infected individuals, 3H thymidine incorporation. The format is cell-based, human. Conditions: for stimulation of proliferation: higher doses (10^−4M), PBMC of HIV-infected patients; for stimulation of proliferation (incorporation of 3H thymidine, cpm): very low / low doses, PBMC from HIV-infected patients, in vitro. The source says: If desired, additional in vitro assays can be carried out using candidate compounds of the invention, prior to their use in vivo. One such assay employs the candidate compound at a very low concentration, in a test designed to determine whether at low concentrations the compound can stimulate the proliferation of PBMC from HIV infected patients in vitro. As is shown in the data of FIG. 4, stimulation can be measured by, e.g., incorporation of a labelled nucleotide. Peripheral blood mononuclear cells (PBMC) were obtained by standard methods from HIV-infected individuals, and from uninfected individuals. Varying dosages of KBP or VBP were contacted with the PBMC in vitro, and stimulation of proliferation was measured by incorporation of ^3H thymidine (cpm).
(Incorporation of labelled thymidine or its analogues reports DNA synthesis.)

In the case of `CC(C)[C@H](N)C(=O)N1CCC[C@H]1B(O)O` [Val-boroPro], the “cell death / apoptosis (7AAD)” value was “highly sensitive” in assay [1]; “dose-dependent apoptosis” in assay [1] (listed as VBP); “equally susceptible” in assay [2]; “dose-dependent apoptosis in both CD26^+ and CD26^− populations; also recorded: equally susceptible” in assay [2] (listed as VBP). For the same compound, the “inhibition of enzymatic activity (AFC release from Ala-ProAFC)” value in assay [3] is reported as “inhibited”; in assay [3] (listed as val-boroPro), “inhibited the cytoplasmic enzyme”. In addition, in assay [4], the stimulation of proliferation result was “do not have this effect”. The “stimulation of proliferation (incorporation of 3H thymidine, cpm)” value in assay [4] was “stimulated proliferation; also recorded: cause proliferation”.

Turning to `NCCCC[C@H](N)C(=O)N1CCC[C@H]1B(O)O` [Lys-boroPro], in assay [4], the stimulation of proliferation result is given as “do not have this effect” and the “stimulation of proliferation (incorporation of 3H thymidine, cpm)” value is “stimulated proliferation; also recorded: cause proliferation”.
